Measurements: paper PMC5469451, “Identification of compounds that suppress Toxoplasma gondii tachyzoites and bradyzoites” (PLoS ONE, 2017)
Read-outs that look alike come from different tables or passages of the source. Where a SMILES comes first, the peptide text is derived from it. The star is where a group is joined. Boc = CC(C)(C)OC(=O)*

Tests used:
[1] = test system: PLK/DLUC_1C9 tachyzoites in Vero cells; assay: Primary screening: T. gondii growth assay, Renilla luciferase; assay type: cell-based, Toxoplasma gondii; details: 48 h; for inhibition at 10 µM: Toxoplasma gondii, read-out: Parasite Inhibition (%)
Method: In the primary screening, purified PLK/DLULC_1C9 tachyzoites were incubated with Vero cells at a multiplicity of infection (MOI) of 0.5. After a 2-h incubation, the infected host cells were trypsinized to obtain a cell suspension and then these suspended infected cells were inoculated into 96-well optical bottom plates containing the compound library. Each well was inoculated with 2500 cells in 25 μL of culture medium. […] Following cell inoculation, each well therefore contained 0.5% DMSO and 10 μM compound. After 48 h of culture, Renilla luciferase activity was measured by using Renilla-Glo (Promega, WI, USA) following the manufacturer’s instructions. […] The Z’-value for each plate was calculated from the Renilla luciferase activity in the negative and positive control wells.

[2] = Host cell cytotoxicity assay (Cell-Titer Glo), Vero cells; assay type: cell-based; details: African green monkey
Method: (§1) Host cells were treated with compounds at the same concentration used for screening (i.e., 0.5% DMSO and 10 μM compound). Vero cells and HFF cells were both used as host cells because both cell types were used for the parasite screening. After incubation for 48 h in DMEM supplemented with 5% FBS, L-glutamine, penicillin, and streptomycin, cell viabilities were measured by using a Cell-Titer Glo kit (Promega) following the manufacturer’s instructions. Control wells were treated with DMSO alone in culture medium to calculate the 100% viability for each cell type.

[3] = test system: RH-2F tachyzoites (type I strain) in HFF cells; assay: Confirmatory screening: RH-2F β-galactosidase growth assay in HFF cells; assay type: cell-based, Toxoplasma gondii; details: 48 h, 48 h; for inhibition at 2.5 µM / inhibition at 25 µM: Toxoplasma gondii, read-out: Parasite inhibition (%)
Method: In the confirmatory screening, we utilize an RH strain β-galactosidase reporter parasite termed RH-2F (a type I strain). Briefly, RH-2F parasites were purified from freshly lysed infected host cells and used to infect confluent HFF cells cultured in 96-well plates. Five hundred parasites were added to each well, along with each test compound and 50 μL of culture medium. Plates were then incubated for 10 min at room temperature followed by an incubation at 37°C for 48 h in a CO2 incubator.
To measure the effects of tanshinone IIA and hydroxyzine on intracellular parasite growth, parasites were allowed to invade for 2 h, uninvaded parasites were washed away, and medium with compounds was added. After 48 h, the plates were frozen at -80°C. Plates were then thawed just prior to the measurement of beta-galactosidase activity. Beta-Glo (Promega) was used to measure β-galactosidase activity following the manufacturer’s instructions.

[4] = Host cell cytotoxicity assay (Cell-Titer Glo), HFF cells; assay type: cell-based, human; details: human
Method: as §1, with “Vero” for “Host cells were treated with compounds at the same concentration used for screening (i.e., 0.5% DMSO and 10 μM compound). Vero”

Vero cells = assay: Host cell cytotoxicity assay (Cell-Titer Glo), Vero cells; assay type: cell-based
Method: as §1

HFF cells = assay: Host cell cytotoxicity assay (Cell-Titer Glo), HFF cells; assay type: cell-based, human
Method: as §1, with “Vero” for “Host cells were treated with compounds at the same concentration used for screening (i.e., 0.5% DMSO and 10 μM compound). Vero”

[5] = 10 μM, PLK/DLUC_1C9 in Vero cells, DMSO = 0%, 10 μM pyrimethamine = 100%
[6] = HFF, 2.5 μM, RH-2F in HFF, compared with 10 μM pyrimethamine
[7] = 25 μM, RH-2F in HFF, compared with 10 μM pyrimethamine
[8] = 10 μM, 48 h, Vero cells, DMSO = 100%
[9] = 2.5 μM, RH-2F in HFF, compared with 10 μM pyrimethamine
[10] = 25 μM, 48 h, HFF cells, compared with DMSO
[11] = 10 μM, 48 h, Vero cells, DMSO = 100%, read-out: Host Viability (%)
[12] = HFF, 25 μM, RH-2F in HFF, compared with 10 μM pyrimethamine

OCCN1CCN(CCCN2c3ccccc3Sc3ccc(Cl)cc32)CC1 [Perphenazine]
inhibition at 10 µM [1, 5]: 104% | viability at 48 h, 10 µM [2]: 84% | inhibition at 2.5 µM [3, 6]: -6.8% | inhibition at 25 µM [3, 7]: 112% | viability at 48 h, 2.5 µM ([4]; Host cell viability (%)): 95% | viability at 48 h, 25 µM ([4]; Host cell viability (%)): 65%

CCCCC/C=C\C/C=C\C/C=C\C/C=C\CCCC(=O)Nc1ccc(O)cc1 [AM404]
Parasite inhibition (%) [1, 5]: 103% | Host Viability (%) (Vero cells; [8]): 100% | Parasite inhibition (%) [3, 9]: -11% | Parasite inhibition (%) [3, 7]: 59% | Host cell viability (%) (HFF cells; 2.5 μM, 48 h, HFF cells): 93% | Host cell viability (%) (HFF cells; [10]): 86%

CCN(CC)CCNc1ccc(CO)c2sc3ccccc3c(=O)c12 [Hycanthone]
inhibition at 10 µM [1, 5]: 97% | viability at 48 h, 10 µM [2]: 82%

COc1ccc(C(=O)/C(Cc2cc(OC)c(OC)c(OC)c2)=C(\C(=O)O)c2ccc3c(c2)OCO3)cc1 [(2Z)-2-(1,3-Benzodioxol-5-yl)-4-(4-methoxyphenyl)-4-oxo-3-(3,4,5-trimethoxybenzyl)-2-butenoic acid]
inhibition at 10 µM [1, 5]: 93% | viability at 48 h, 10 µM [2]: 85%

CC(C)C[C@H]1C(=O)N2CCC[C@H]2[C@]2(O)O[C@](NC(=O)[C@@H]3C=C4c5cccc6[nH]c(Br)c(c56)C[C@H]4N(C)C3)(C(C)C)C(=O)N12 [Bromocriptine]
inhibition at 10 µM [1, 5]: 105% | viability at 48 h, 10 µM [2, 11]: 85% | inhibition at 2.5 µM [3, 9]: -8% | inhibition at 25 µM [3, 7]: 110% | viability at 48 h, 2.5 µM ([4]; HFF cells, 2.5 μM, 48 h, HFF cells, read-out: Host cell viability (%)): 98% | viability at 48 h, 25 µM ([4]; HFF cells, 25 μM, 48 h, HFF cells, compared with DMSO, read-out: Host cell viability (%)): 93%

COc1ccc(Cl)cc1NC(=O)Nc1cc(C)nc2ccccc12 [TCMDC-125497]
Parasite inhibition (%) [1, 5]: 106% | Host Viability (%) (Vero cells; 10 µM): 82% | Parasite inhibition (%) [3, 9]: 20% | Parasite inhibition (%) [3, 7]: 113% | Host cell viability (%) (HFF cells; 2.5 µM): 99% | Host cell viability (%) (HFF cells; 25 µM): 78%

OCCN1CCN(CCCN2c3ccccc3Sc3ccc(C(F)(F)F)cc32)CC1 [FLUPHENAZINE]
viability at 48 h, 10 µM [2]: 83% | viability at 48 h, 2.5 µM ([4]; Host cell viability (%)): 104% | viability at 48 h, 25 µM ([4]; Host cell viability (%)): 84%

O=C1[C@H]2CCCC[C@H]2C(=O)N1CCCCN1CCN(c2nsc3ccccc23)CC1 [Perospirone]
inhibition at 10 µM [1, 5]: 100% | viability at 48 h, 10 µM [2]: 96% | inhibition at 2.5 µM [3, 6]: 4.5% | inhibition at 25 µM [3, 12]: 59% | viability at 48 h, 2.5 µM ([4]; Host cell viability (%)): 102% | viability at 48 h, 25 µM ([4]; Host cell viability (%)): 101%

COc1ccc(S(=O)(=O)N(CC(=O)NO)CC(C)C)cc1 [N-Hydroxy-N2-isobutyl-N2-[(4-methoxyphenyl)sulfonyl]glycinamide]
inhibition at 10 µM ([1]; Vero): 101% | viability at 10 µM [2, 11]: 98%

Clc1ccccc1C(c1ccccc1)(c1ccccc1)n1ccnc1 [Clotrimazol]
inhibition at 10 µM [1, 5]: 99% | viability at 48 h, 10 µM [2]: 94%

O=c1[nH]c2ccccc2n1CCCN1CCC(n2c(=O)[nH]c3cc(Cl)ccc32)CC1 [Domperidone]
inhibition at 10 µM ([1]; Vero): 93% | viability at 48 h, 10 µM [2]: 94% | inhibition at 2.5 µM [3, 6]: -7.2% | inhibition at 25 µM ([3]; HFF): 77% | viability at 48 h, 2.5 µM ([4]; Host cell viability (%)): 94% | viability at 48 h, 25 µM ([4]; Host cell viability (%)): 83%

PENITREM A
Parasite inhibition (%) [1, 5]: 105% | Parasite inhibition (%) [3, 9]: 6.0% | Parasite inhibition (%) [3, 7]: 110%

Nc1ccccc1NC(=O)c1ccc(CNC(=O)OCc2cccnc2)cc1 [Entinostat]
inhibition at 10 µM [1, 5]: 91% | viability at 48 h, 10 µM [2]: 83% | inhibition at 2.5 µM [3, 6]: -20% | inhibition at 25 µM [3, 12]: 60% | viability at 48 h, 2.5 µM ([4]; Host cell viability (%)): 92% | viability at 48 h, 25 µM ([4]; Host cell viability (%)): 91%

Cc1ccc(C(=O)c2cc(/C=C/C(=O)NO)n(C)c2)cc1 [MC-1293]
Parasite inhibition (%) [1, 5]: 103% | Host Viability (%) (Vero cells; [8]): 85% | Parasite inhibition (%) [3, 9]: 12% | Parasite inhibition (%) [3, 7]: 95% | Host cell viability (%) (HFF cells; 2.5 μM, 48 h, HFF cells): 98% | Host cell viability (%) (HFF cells; [10]): 95%

CC(C)(C)c1ccc(C(O)CCCN2CCC(C(O)(c3ccccc3)c3ccccc3)CC2)cc1 (racemic) [(±)-Terfenadine]
Parasite inhibition (%) [1, 5]: 104% | Host Viability (%) (Vero cells; 10 µM): 85% | Parasite inhibition (%) [3, 9]: -12% | Parasite inhibition (%) [3, 7]: 96% | Host cell viability (%) (HFF cells; 2.5 µM): 96% | Host cell viability (%) (HFF cells; 25 µM): 0.1%

Clc1ccc(C(Cn2ccnc2)OCc2c(Cl)cccc2Cl)c(Cl)c1 (centres unmarked) [Isoconazole]
inhibition at 10 µM [1, 5]: 104% | viability at 10 µM [2, 11]: 101%

O=C(/C=C/c1ccc(O)c(O)c1)c1ccc(O)cc1O [Butein]
inhibition at 10 µM [1, 5]: 96% | viability at 48 h, 10 µM [2]: 93% | inhibition at 2.5 µM [3, 6]: -11% | inhibition at 25 µM [3, 12]: 110% | viability at 48 h, 2.5 µM ([4]; Host cell viability (%)): 102% | viability at 48 h, 25 µM ([4]; Host cell viability (%)): 91%

COC(=O)C1=C(C)NC(C)=C(C(=O)OCCCN2CCC(c3ccccc3)(c3ccccc3)CC2)[C@H]1c1cccc([N+](=O)[O-])c1 [Niguldipine]
inhibition at 10 µM ([1]; Vero): 103% | viability at 10 µM [2]: 77% | inhibition at 2.5 µM ([3]; HFF): -19% | inhibition at 25 µM ([3]; HFF): 96% | viability at 2.5 µM [4]: 99% | viability at 25 µM [4]: 84%

CC(C)[C@H](NC(=O)CNC(=O)OC(C)(C)C)C(=O)N[C@H](C=O)C(C)C [N-{[(2-Methyl-2-propanyl)oxy]carbonyl}glycyl-N-[(2S)-3-methyl-1-oxo-2-butanyl]-L-valinamide] (Boc-Gly-Val-Val-aldehyde)
inhibition at 10 µM [1, 5]: 105% | viability at 48 h, 10 µM [2]: 106%

CC[N+](C)(CC)CCC[n+]1c(-c2ccccc2)c2cc(N)ccc2c2ccc(N)cc21.[I-].[I-] [Propidium Iodide]
Parasite inhibition (%) [1, 5]: 91% | Host Viability (%) (Vero cells; 10 µM): 91%

OC(c1cc(C(F)(F)F)nc2c(C(F)(F)F)cccc12)C1CCCCN1 (centres unmarked) [Mefloquine]
inhibition at 10 µM [1, 5]: 101% | viability at 48 h, 10 µM [2]: 87% | inhibition at 2.5 µM [3, 9]: 6.5% | inhibition at 25 µM [3, 7]: 113% | viability at 48 h, 2.5 µM ([4]; Host cell viability (%)): 94% | viability at 48 h, 25 µM ([4]; Host cell viability (%)): 48%

COc1ccc2[nH]c([S+]([O-])Cc3ncc(C)c(OC)c3C)nc2c1 (centres unmarked) [Omeprazole]
inhibition at 10 µM ([1]; Vero): 92% | viability at 48 h, 10 µM [2]: 97% | inhibition at 2.5 µM ([3]; HFF): 4.3% | inhibition at 25 µM ([3]; HFF): 44% | viability at 48 h, 2.5 µM ([4]; Host cell viability (%)): 100% | viability at 48 h, 25 µM ([4]; Host cell viability (%)): 100%
